Results from ChEMBL document CHEMBL5050844 (2019).

Legend:
[1] = Induction of anti-CD3/CD28 antibodies-stimulated human CD8+ T cell activation at 1.11 uM assessed fold increase in cell proliferation measured by flow cytometry analysis; type: functional, T cell line
[2] = Induction of anti-CD3 antibodies-stimulated human T cell activation at 10 uM assessed fold increase in TNF-alpha secretion measured by ELISA assay; type: functional, T cell line; further: reference of the scale not given here
[3] = Induction of anti-CD3/CD28 antibodies-stimulated human T cell activation at 1.11 uM assessed fold increase in TNF-alpha secretion measured by ELISA assay; type: functional, T cell line
[4] = Induction of activation of human CD56+ CD3- NK cells co-cultured with human K562 cells in 1:1 ratio and assessed as increase in TNF-alpha secretion at 10 uM measured by ELISA assay; type: functional, Natural killer cell
[5] = Induction of activation of human CD56+ CD3- NK cells co-cultured with human K562 cells in 1:1 ratio and assessed as increase in TNF-alpha secretion at 2.5 uM measured by ELISA assay; type: functional, Natural killer cell
[6] = Induction of anti-CD3 antibodies-stimulated human T cell activation at 1.11 uM assessed fold increase in IFN-gamma secretion measured by ELISA assay; type: functional, T cell line; further: reference of the scale not given here
[7] = Induction of anti-CD3 antibodies-stimulated human CD8+ T cell activation at 10 uM assessed fold increase in CD69 expression measured by flow cytometry analysis; type: functional, T cell line; further: reference of the scale not given here
[8] = Induction of activation of human CD56+ CD3- NK cells co-cultured with human K562 cells in 1:1 ratio and assessed as increase in IFN-gamma secretion at 10 uM measured by ELISA assay; type: functional, Natural killer cell
[9] = Induction of anti-CD3/CD28 antibodies-stimulated human CD4+ T cell activation at 10 uM assessed fold increase in cell proliferation measured by flow cytometry analysis; type: functional, T cell line
[10] = Induction of anti-CD3/CD28 antibodies-stimulated human T cell activation at 1 uM assessed fold increase in CD25 expression measured by ELISA assay; type: functional, T cell line
[11] = Induction of anti-CD3/CD28 antibodies-stimulated human T cell activation at 1 uM assessed fold increase in IL-2 secretion measured by ELISA assay; type: functional, T cell line
[12] = Induction of allogenic human T cell activation at 10 uM assessed fold increase in cell proliferation; type: functional, T cell line
[13] = Induction of anti-CD3/CD28 antibodies-stimulated human CD8+ T cell activation at 10 uM assessed fold increase in cell proliferation measured by flow cytometry analysis; type: functional, T cell line
[14] = Induction of anti-CD3 antibodies-stimulated human T cell activation at 1.11 uM assessed fold increase in GM-CSF secretion measured by ELISA assay; type: functional, T cell line; further: reference of the scale not given here
[15] = Induction of activation of human CD56+ CD3- NK cells co-cultured with human K562 cells in 1:1 ratio and assessed as increase in IFN-gamma secretion at 0.625 uM measured by ELISA assay; type: functional, Natural killer cell
[16] = Induction of anti-CD3/CD28 antibodies-stimulated human T cell activation at 1.11 uM assessed fold increase in GM-CSF secretion measured by ELISA assay; type: functional, T cell line
[17] = Induction of anti-CD3 antibodies-stimulated human CD4+ T cell activation at 1.11 uM assessed fold increase in CD69 expression measured by flow cytometry analysis; type: functional, T cell line; further: reference of the scale not given here
[18] = Induction of anti-CD3/CD28 antibodies-stimulated human anergic T cell activation at 10 uM assessed fold increase in IFN-gamma secretion measured by ELISA assay; type: functional, T cell line
[19] = Induction of activation of human CD56+ CD3- NK cells co-cultured with human K562 cells in 1:1 ratio and assessed as increase in IFN-gamma secretion at 2.5 uM measured by ELISA assay; type: functional, Natural killer cell
[20] = Induction of anti-CD3/CD28 antibodies-stimulated human CD4+ T cell activation at 1.11 uM assessed fold increase in CD69 expression measured by flow cytometry analysis; type: functional, T cell line
[21] = Induction of anti-CD3 antibodies-stimulated human exhausted T cell activation assessed fold increase in IFN-gamma secretion measured by ELISA assay; type: functional, T cell line; further: reference of the scale not given here
[22] = Induction of anti-CD3 antibodies-stimulated human T cell activation at 8 uM assessed fold increase in CD25 expression measured by ELISA assay; type: functional, T cell line; further: reference of the scale not given here
[23] = Induction of allogenic human T cell activation at 3 uM assessed fold increase in cell proliferation; type: functional, T cell line
[24] = Induction of anti-CD3 antibodies-stimulated human T cell activation at 1.11 uM assessed fold increase in TNF-alpha secretion measured by ELISA assay; type: functional, T cell line; further: reference of the scale not given here
[25] = Induction of anti-CD3/CD28 antibodies-stimulated human T cell activation at 0.3 uM assessed fold increase in IL-2 secretion measured by ELISA assay; type: functional, T cell line
[26] = Induction of anti-CD3/CD28 antibodies-stimulated human anergic T cell activation at 0.37 uM assessed fold increase in IFN-gamma secretion measured by ELISA assay; type: functional, T cell line
B cell = experiment: Induction of anti-IgM-stimulated human CD20+ B cell activation at 10 to 1000 uM assessed as increase in CD69 expression measured as mean fluorescence intensity AUC by flow cytometry analysis; type: functional, cell-based; conditions: dose 10-1000 µM
[27] = Induction of anti-CD3/CD28 antibodies-stimulated human anergic T cell activation at 1.11 uM assessed fold increase in IFN-gamma secretion measured by ELISA assay; type: functional, T cell line
[28] = Induction of anti-CD3/CD28 antibodies-stimulated human CD4+ T cell activation at 10 uM assessed fold increase in CD69 expression measured by flow cytometry analysis; type: functional, T cell line
[29] = Induction of anti-CD3 antibodies-stimulated human exhausted T cell activation assessed fold increase in IL-2 secretion measured by ELISA assay; type: functional, T cell line; further: reference of the scale not given here
[30] = Induction of anti-CD3/CD28 antibodies-stimulated human CD4+ T cell activation at 1.11 uM assessed fold increase in cell proliferation measured by flow cytometry analysis; type: functional, T cell line
[31] = Induction of anti-CD3/CD28 antibodies-stimulated human CD8+ T cell activation at 10 uM assessed fold increase in CD69 expression measured by flow cytometry analysis; type: functional, T cell line
[32] = Induction of anti-CD3 antibodies-stimulated human T cell activation at 1 uM assessed fold increase in CD25 expression measured by ELISA assay; type: functional, T cell line; further: reference of the scale not given here
[33] = Induction of anti-CD3/CD28 antibodies-stimulated human T cell activation at 10 uM assessed fold increase in TNF-alpha secretion measured by ELISA assay; type: functional, T cell line
[34] = Induction of anti-CD3/CD28 antibodies-stimulated human T cell activation at 4 uM assessed fold increase in IL-2 secretion measured by ELISA assay; type: functional, T cell line
[35] = Induction of anti-CD3/CD28 antibodies-stimulated human T cell activation at 4 uM assessed fold increase in CD25 expression measured by ELISA assay; type: functional, T cell line
[36] = Induction of anti-CD3 antibodies-stimulated human CD8+ T cell activation at 1.11 uM assessed fold increase in CD69 expression measured by flow cytometry analysis; type: functional, T cell line; further: reference of the scale not given here
[37] = Induction of activation of human CD56+ CD3- NK cells co-cultured with human K562 cells in 1:1 ratio and assessed as increase in TNF-alpha secretion at 0.625 uM measured by ELISA assay; type: functional, Natural killer cell

SMILES | fold change (FC) [1] | fold change (FC) [2] | fold change (FC) [3] | fold change (FC) [4] | fold change (FC) [5] | fold change (FC) [6] | fold change (FC) [7] | fold change (FC) [8] | fold change (FC) [9] | fold change (FC) [10] | fold change (FC) [11] | fold change (FC) [12] | fold change (FC) [13] | fold change (FC) [14] | fold change (FC) [15] | fold change (FC) [16] | fold change (FC) [17] | fold change (FC) [18] | fold change (FC) [19] | fold change (FC) [20] | also measured
Cc1cc(C(=O)Nc2cccc([C@H](C)Cc3nncn3C)c2)nc(C2CC2)n1 | <=2 | 1.51 | 2.01 | 2.01 | 2.01 | 2.01 | 1.401 | 2.01 | >4 | >=1.76 | >=7.5 | 2.01 | >4 | 2.01 | 2.01 | >4 | <=1.2 | <=2.5 | 2.01 | <=1.2 | fold change (FC) [21]: 1.41; fold change (FC) [22]: >=1.001; fold change (FC) [23]: <=2; fold change (FC) [24]: 1.51; fold change (FC) [25]: 5; fold change (FC) [26]: <=2.5; AUC (B cell): > 1.51; fold change (FC) [27]: <=2.5; fold change (FC) [28]: >1.601; fold change (FC) [29]: <=2.5; fold change (FC) [30]: <=2; fold change (FC) [31]: 1.201; fold change (FC) [32]: >=1.001; fold change (FC) [33]: >4; fold change (FC) [34]: >=7.5; fold change (FC) [35]: >=1.76; fold change (FC) [36]: <=1.2; fold change (FC) [37]: 1.01
Cn1cnnc1[C@@H]1C[C@@H]1c1cccc(N2Cc3c(ccnc3C(F)(F)F)C2=O)c1 | <=2 | 1.51 | <=1.5 | 1.01 | <=1 | <=2 | <=1.2 | 2.01 | >4 | 1.01 | 1.01 | <=2 | 2.01 | <=1.5 | 1.01 | <=1.5 | <=1.2 | 2.51 | <=1 | <=1.2 | fold change (FC) [21]: <=1.4; fold change (FC) [22]: 0.801; fold change (FC) [23]: <=2; fold change (FC) [24]: <=1.5; fold change (FC) [25]: 1.01; fold change (FC) [26]: <=2.5; AUC (B cell): 1.01; fold change (FC) [27]: <=2.5; fold change (FC) [28]: 1.401; fold change (FC) [29]: <=2.5; fold change (FC) [30]: <=2; fold change (FC) [31]: 1.201; fold change (FC) [32]: 0.601; fold change (FC) [33]: 2.01; fold change (FC) [34]: 1.01; fold change (FC) [35]: 1.01; fold change (FC) [36]: <=1.2; fold change (FC) [37]: <=1
C[C@H](Cc1nncn1C)c1cccc(NC(=O)c2n[nH]c3c2CCC3)c1 | 3.01 | <=1.5 | <=1.5 | 1.01 | 1.01 | 2.01 | <=1.2 | 2.01 | >4 | 1.01 | 1.01 | <=2 | 2.01 | <=1.5 | 1.01 | <=1.5 | >1.601 | <=2.5 | <=1 | 1.401 | fold change (FC) [21]: <=1.4; fold change (FC) [22]: 0.801; fold change (FC) [23]: <=2; fold change (FC) [24]: <=1.5; fold change (FC) [25]: 1.01; fold change (FC) [26]: <=2.5; AUC (B cell): 0.5; fold change (FC) [27]: <=2.5; fold change (FC) [28]: 1.201; fold change (FC) [29]: <=2.5; fold change (FC) [30]: >4; fold change (FC) [31]: 1.201; fold change (FC) [32]: 0.601; fold change (FC) [33]: 2.01; fold change (FC) [34]: 2.51; fold change (FC) [35]: 1.01; fold change (FC) [36]: 1.401; fold change (FC) [37]: 1.01
